The results in this text go back to patent US8759400B2, “Histone deacetylase inhibitors for enhancing activity of antifungal agents” (MethylGene Inc., priority 2005, dated 2014).

This assay relates to C. glabrata parent strain (ATCC 90030) and C. glabrata mutants. Put plainly: microbe, parasite or virus in culture. As to conditions: for MIC80: C. glabrata parent strain. The class given is cell-based.
The mark [1] stands for this setting: C. glabrata (ATCC 90030) parent strain.

Converted amounts (≈) assume the structure as drawn. Where two headings read alike, the source gives them in different places. Where only a bound is given, the exact number is not on record here.

Turning to `O=C(Cc1ccc(CCCCc2ccccc2)cc1)NO` [Cpd 4], under setting [1], the “4-fold synergy Fluconazole/Cpd 4” value is 0.25–0.5 ug/ml Cpd 4 and the “4-fold synergy Itraconazole/Cpd 4” value is 0.25–0.5 ug/ml Cpd 4. For the same molecule, the “Compound 4 concentration for synergy with azoles” value (itraconazole, fluconazole, all azole-resistant mutants tested) was at most 4 µg/mL. Under “itraconazole-resistant mutants”, the “Compound 4 concentration lowering itraconazole MIC80” value is at most 44 mg/L.

Regarding `OC(Cn1cncn1)(Cn1cncn1)c1ccc(F)cc1F` [fluconazole], the MIC80 (Nakaseomyces glabratus, ATCC90030, azole alone) stood at 32 mg/L (≈ 104 µM) and the MIC80 (azole alone) lay in the range of 32 to 64 mg/L. Also, the MIC runs as follows: (Nakaseomyces glabratus, ATCC90030, read-out: fluconazole MIC in presence of Compound 4, fluconazole-resistant mutants) 4 to 32 mg/L; (Nakaseomyces glabratus, ATCC90030, read-out: fluconazole MIC in presence of Compound 4, susceptible parent) 4 to 8 mg/L.
